Earlier results, collected in patent publication US10919913B2, “Spiro[3H-indole-3,2′-pyrrolidin]-2(1H)-one compounds and derivatives as MDM2-p53 inhibitors” (Boehringer Ingelheim International GmbH, priority 2014, dated 2021).

Tested on: p53 wild-type vs. p53 mutant cell lines
Settings: in vitro, PPTP of the NCI (Carol et al. 2013)

SMILES: CCOc1cc(C(C)(C)C)ccc1C1=N[C@@](C)(c2ccc(Cl)cc2)[C@@](C)(c2ccc(Cl)cc2)N1C(=O)N1CCN(CCCS(C)(=O)=O)CC1 [RG-7112]
- cytotoxic activity, median IC50 p53 wild-type vs. p53 mutant cell lines: lower median IC50 values for p53 wild-type vs. p53 mutant cell lines
